Data taken from US9408856B2, “Topical steroidal formulations” (Temple University—Of The Commonwealth System of Higher …, priority 2008, dated 2016).
Where “and” joins values, the source holds several entries; their conditions need not be identical. Equal entries are not always repeated.

How the values were obtained:
[1] = test system: TPA-stimulated epidermal DNA synthesis in mouse epidermis; test: TPA-induced epidermal DNA synthesis in mouse epidermis, transdermal fluasterone; format: in vivo, CD-1 mice; conditions: 20 h
[2] = test system: TPA-stimulated epidermal DNA synthesis in mouse epidermis; test: as above; format: in vivo, CD-1 mice; conditions: TPA 2 μg (back) after carbitol vehicle only; 20 h; single mice and group mean
Protocol: In dose-response experiments the anti-hyperplastic efficacy of fluasterone in TPA-treated mouse epidermis to determine bioavailability following different routes of administration was measured. Mice were treated with a single dose of fluasterone (either orally, subcutaneously, or transdermally) followed by a single application of TPA to the shaved back one hour latter. In case of transdermal administration, fluasterone is applied in a topical formulation to the shaved abdomen to allow for systemic absorption to the back of the animal. Twenty hours after TPA application, the mice are injected with 60 μCi of [3H] thymidine, sacrificed 20 minutes later, and a 2×2 cm2 of skin from the shaved back is excised and processed for the determination of the amount of [3H] thymidine incorporated per unit of epidermal DNA. (Hennings et. al., Cancer Res. 28:543-552, 1968).
Female CD-1 mice, 40-43 days old, were obtained from Charles River Laboratories, Kingston, N.Y. The mice were housed two per cage in plastic shoebox cages on Absorbdri bedding with 12 hours of alternating light and dark in the Central Animal Facility. The mice had ad libitum access to Purina 5015 chow and acidified tap water (pH S 2.6). The mice were allowed to acclimate to the facility for approximately two weeks prior to use in an experiment. […]
The mice were weighed, marked with magic marker on the tail, and shaved on the back and the abdomen one day prior to treatment. Only those mice showing no hair regrowth were used in the experiment. Fluasterone was applied to the shaved abdomen one hour before TPA was applied to the shaved back. The mice were anesthetized and on their backs prior to topical application of TPA. […]
The mice were anesthetized with Isoflurane, and then were given an intramuscular injection of 0.1 mL solution of ketamine (50 mg/kg), xylazine (10 mg/kg) and atropine (0.1 mg/kg). Approximately 10 minutes after the i.m. injection (after the mice could not turn over when placed on their backs), the mice were treated with 5 μL of a 12.5 mg/mL fluasterone/carbitol solution to give a dose of 2.5 mg/kg. The mice were anesthetized and on their backs for approximately 30 minutes after application of fluasterone/carbitol solution. One hour after the application of fluasterone/carbitol solution, 2 μg of TPA dissolved in. 0.2 mL of acetone was applied to the shaved area on the back of each mouse. […]
The mice were anesthetized with Isoflurane, and then were given an intramuscular injection of 0.1 mL solution of ketamine (50 mg/kg), xylazine (10 mg/kg) and atropine (0.1 mg/kg). Approximately 10 minutes after the i.m. injection (after the mice could not turn over when placed on their backs), the mice were treated with 2.5 μl, of a 12.5 mg/mL fluasterone/carbitol solution to give a dose of 1.25 mg/kg. The mice were anesthetized and on their backs for approximately 30 minutes after application of fluasterone/carbitol solution. One hour after the application of fluasterone/carbitol solution, 2 μg of TPA dissolved in 0.2 mL of acetone was applied to the shaved area on the back of each mouse.
The mice were anesthetized with Isoflurane, and then were given an intramuscular injection of 0.1 mL solution of ketamine (50 mg/kg), xylazine (10 mg/kg) and atropine (0.1 mg/kg). Approximately 10 minutes after the i.m. injection (after the mice could not turn over when placed on their backs), the mice were treated with 10 μL of a 12.5 mg/mL fluasterone/Cremophor EL solution to give a dose of 5 mg/kg. The mice were anesthetized and on their backs for approximately 30 minutes after application of fluasterone/Cremophor EL solution. One hour after the application of fluasterone/Cremophor EL solution, 2 μg of TPA dissolved in 0.2 mL of acetone was applied to the shaved area on the back of each mouse.
The mice were anesthetized with Isoflurane, and then were given an intramuscular injection of 0.1 mL solution of ketamine (50 mg/kg), xylazine (10 mg/kg) and atropine (0.1 mg/kg). […]

[3] = TPA 2 μg (back) after Cremophor EL vehicle only, single mice
[4] = TPA 2 μg (back) after Cremophor EL:ethanol (50:50 v/v) vehicle only, single mice
[5] = TPA 2 μg (back) after Tween 80:ethanol (50:50 v/v) vehicle only, single mice
[6] = TPA 2 μg (back) after carbitol vehicle only, single mice
[7] = TPA 2 μg (back) after ethanol:limonene:isopropyl myristate (81:15:4) vehicle only, single mice
[8] = TPA 2 μg (back) after ethanol:limonene:isopropyl myristate (81:15:4) vehicle only, single mice and group mean
[9] = TPA 2 μg (back) after ethanol:water:Tween 80 (76:19:5) vehicle only, single mice
[10] = TPA 2 μg (back) after ethanol:water:Tween 80 (76:19:5) vehicle only, single mice and group mean

CCCCCCCCCCCCCC(=O)O[C@@H]1[C@@H](C)[C@@]2(O)[C@@H](C=C(CO)C[C@]3(O)C(=O)C(C)=C[C@@H]23)[C@@H]2C(C)(C)[C@]12OC(C)=O [TPA, 12-O-tetradecanoylphorbol-13-acetate, reference compound]
corrected cpm [1, 3]: 16,842 cpm and 13,849 cpm | cpm [1, 3]: 16,877 cpm and 13,884 cpm | μg DNA/0.2 mL [1, 3]: 28.7 μg DNA/0.2 mL and 30.4 μg DNA/0.2 mL | cpm/μg DNA ([1]; TPA 2 μg (back) after Cremophor EL vehicle only, single mice and group mean): 586.8 cpm/μg DNA and 455.6 cpm/μg DNA and 521.2 ± 92.8 cpm/μg DNA | corrected cpm [1, 4]: 54,709 cpm and 54,308 cpm | cpm [1, 4]: 54,744 cpm and 54,343 cpm | μg DNA/0.2 [1, 4]: 36.9 μg DNA/0.2 and 35.7 μg DNA/0.2 | cpm/μg DNA ([1]; TPA 2 μg (back) after Cremophor EL:ethanol (50:50 v/v) vehicle only, single mice and group mean): 1,482.6 cpm/μg DNA and 1,521.2 cpm/μg DNA | corrected cpm [1, 5]: 4,276 cpm and 3,114 cpm | cpm [1, 5]: 4,301 cpm and 3,139 cpm | μg DNA/0.2 [1, 5]: 17.5 μg DNA/0.2 and 18.6 μg DNA/0.2 | cpm/μg DNA ([1]; TPA 2 μg (back) after Tween 80:ethanol (50:50 v/v) vehicle only, single mice and group mean): 244.3 cpm/μg DNA and 167.4 cpm/μg DNA | corrected cpm [1, 6]: 6,729 cpm and 7,496 cpm | cpm [1, 6]: 6,764 cpm and 7,531 cpm | μg DNA/0.2 mL [1, 6]: 20.3 μg DNA/0.2 mL and 21.2 μg DNA/0.2 mL | corrected cpm [1, 7]: 8,545 cpm and 11,109 cpm | cpm [1, 7]: 8,574 cpm and 11,138 cpm | cpm/μg DNA [1, 8]: 277.4 cpm/μg DNA and 322.0 cpm/μg DNA | μg DNA/0.2 mL [1, 8]: 30.8 μg DNA/0.2 mL and 34.5 μg DNA/0.2 mL | corrected cpm [1, 9]: 7,274 cpm and 6,557 cpm | cpm [1, 9]: 7,303 cpm and 6,586 cpm | cpm/μg DNA [1, 10]: 208.4 cpm/μg DNA and 186.3 cpm/μg DNA | μg DNA/0.2 mL [1, 10]: 34.9 μg DNA/0.2 mL and 35.2 μg DNA/0.2 mL | cpm/μg DNA [2]: 331.5 cpm/μg DNA and 353.6 cpm/μg DNA and 342.6 ± 15.6 cpm/μg DNA
